The results in this text go back to patent publication US9393221B2, “Methods and compounds for reducing intracellular lipid storage” (THE GENERAL HOSPITAL CORPORATION, priority 2011, dated 2016).

Structures can show the parent of a compound that is named as a salt.

For the first experiment, the system named is ATGL-KO iPSCs. The experiment is described as follows: High throughput iPSC chemical screening, Oil Red O (ORO) lipid accumulation. As to Z-score: test concentration or dose not given here. Type of experiment: cell-based, mouse.
Conditions: not given
`Oc1ccc2c3c1O[C@H]1[C@@H](O)CC[C@@]4(O)[C@@H](C2)N(CC2CCC2)CC[C@]314` [Nalbuphine hydrochloride] came in with a Z-score of −1.0996.

Staying with this experiment, now noted: glycolytic switch compounds.
For the compound `CC/C(=C(\c1ccccc1)c1ccc(OCCN(C)C)cc1)c1ccccc1` [Tamoxifen citrate], the “Rank in normalized ORO score from screen” value was 130.

As to `O=C1C=CC(=O)c2c1ccc1c2ccc2ccccc21` [Chrysene-1,4-quinone], the “Rank in normalized ORO score from screen” value is 133.

On to `CN(C)CCCN1c2ccccc2Sc2ccc(C(F)(F)F)cc21` [Triflupromazine hydrochloride], for which the “Rank in normalized ORO score from screen” value was 644.

Still in this experiment, the particulars now being: normalized ORO level vs DMSO-treated cells; compound present during 7 days differentiation, 96-well; negative = decrease in lipid accumulation.
`O=C(O)CCC(=O)Nc1ccc(S(=O)(=O)Nc2nccs2)cc1` [Succinylsulfathiazole] returned a Z-score of 1.139.

The compound `COc1ccc(CCN(C)CCCC(C#N)(c2ccc(OC)c(OC)c2)C(C)C)cc1OC.Cl` (stereo not drawn) [Verapamyl hydrochloride] returned a Z-score of 0.4436.

Compound `CC(=O)Oc1cc(C(F)(F)F)ccc1C(=O)O` [Triflusal] yielded a Z-score of −1.2041.

For the compound `COC(=O)Nc1nc2ccc(SC(C)C)cc2[nH]1` [Methiazole], the Z-score was determined as 19.8245.

As to `CSc1ccc2c(c1)N(CCC1CCCCN1C)c1ccccc1S2` (stereo not drawn) [Thioridazine hydrochloride], the Z-score was −1.1212.

As for `CN(C)CCN(Cc1ccc(Cl)cc1)c1ccccn1` [Chloropyramine hydrochloride], the Z-score is 0.124.

Consider `CC(=O)N(CC(C)C(=O)O)c1c(I)cc(I)c(N)c1I` (stereo not drawn) [Iocetamic acid], for which the Z-score was −1.5742.

Regarding `CN(C)CCCN1c2ccccc2Sc2ccc(Cl)cc21` [Chlorpromazine hydrochloride], the Z-score was −0.5417.

`CC(C)[N+](C)(CCC(C(N)=O)(c1ccccc1)c1ccccc1)C(C)C` [Isopropamide iodide]: the Z-score is −0.2928.

With `COc1c(C)c2c(c(O)c1C/C=C(\C)CCC(=O)O)C(=O)OC2` [Mycophenolic acid], the Z-score worked out at 36.1922.

As for `CC(=O)Nc1cc2ccccc2oc1=O` [3-Acetamidocoumarin], the Z-score amounted to 0.06786.

The compound `CN1C[C@H](CO)C=C2c3cccc4[nH]cc(c34)C[C@H]21` [Lysergol] had a Z-score of −0.3809.

`Cl.Cl.OCCN1CCN(CC/C=C2/c3ccccc3Sc3ccc(C(F)(F)F)cc32)CC1` [Flupentixol dihydrochloride cis-(Z)] yielded a Z-score of −0.5309.

`COc1cc(-c2ccc(=O)[nH]n2)ccc1OC(F)F` [Zardaverine] yielded a Z-score of −0.6963.

As to `COc1ccc([C@@H]2CC(=O)c3c(O)cc(O)cc3O2)cc1O` [Hesperetin], the Z-score is recorded as −1.3358.

For `CC/C(=C(\c1ccccc1)c1ccc(OCCN(C)C)cc1)c1ccccc1` [Tamoxifen citrate], the Z-score is on record as −1.1882.

`CC(C)NCC(O)COc1ccc(COCCOC(C)C)cc1` (stereo not drawn) [Bisoprolol fumarate] had a Z-score of 0.03425.

As for `CC(=O)OCC(=O)[C@@]12OC(C)(C)O[C@@H]1C[C@H]1[C@@H]3C[C@H](F)C4=CC(=O)C=C[C@]4(C)[C@@]3(F)[C@@H](O)C[C@@]12C` [Fluocinonide], the Z-score is on record as 0.3846.

In turn, `C[C@H]1c2cccc(O)c2C(=O)C2=C(O)[C@]3(O)C(=O)C(C(N)=O)=C(O)[C@@H](N(C)C)[C@@H]3[C@@H](O)[C@@H]21` [Doxycycline hydrochloride] came in with a Z-score of 2.356.

Take Tropicamide: the Z-score is reported as 0.5083.

`CN1C(=O)CC(c2ccccc2)C1=O` (stereo not drawn) [Phensuximide] showed a Z-score of 0.02844.

In turn, `CC[C@H]1CN2CCc3cc(OC)c(OC)cc3[C@@H]2C[C@@H]1C[C@H]1NCCc2cc(OC)c(OC)cc21` [Emetine dihydrochloride] displayed a Z-score of 32.7653.

`CCN1C[C@]2(COC)[C@H](O)C[C@H](OC)[C@@]34[C@@H]5C[C@@]6(O)[C@H](OC(=O)c7ccccc7)[C@@H]5[C@@](OC(C)=O)([C@@H]([C@H](OC)[C@H]23)[C@@H]14)[C@@H](O)[C@@H]6OC` [Aconitine] gave a Z-score of 0.7907.

`CC(=O)O[C@H]1CC[C@@]2(C)C(=CC[C@@H]3[C@@H]2CC[C@]2(C)C(=O)CC[C@@H]32)C1` [Dehydroisoandosterone 3-acetate] had a Z-score of −0.697.

For the compound `Cc1ccccc1OCC(O)CO` (stereo not drawn) [Mephenesin], the Z-score is −0.9401.

`CS(=N)(=O)CC[C@H](N)C(=O)O` (stereo partly drawn) [Methionine sulfoximine (L)]: the Z-score is −0.2829.

Compound `O=C1C=CC(=O)c2c1ccc1c2ccc2ccccc21` [Chrysene-1,4-quinone] had a Z-score of −1.1808.

With `NCCC(=O)NCCc1c[nH]cn1` [Carcinine], the Z-score was 0.6838.

`Cc1cccc(Nc2ccncc2S(=O)(=O)NC(=O)NC(C)C)c1` [Torsemide] showed a Z-score of 0.1541.

`CC(=O)S[C@@H]1CC2=CC(=O)CC[C@]2(C)[C@H]2CC[C@@]3(C)[C@@H](CC[C@@]34CCC(=O)O4)[C@H]12` [Spironolactone] had a Z-score of −1.7632.

In turn, `COc1ccc(CCN2CCC(Nc3nc4ccccc4n3Cc3ccc(F)cc3)CC2)cc1` [Astemizole] showed a Z-score of −0.7215.

Regarding `C#C[C@]1(O)CC[C@H]2[C@@H]3CCC4=CC(=O)CC[C@@H]4[C@H]3CC[C@@]21CC` [Norgestrel-(−)-D], the Z-score stood at 1.412.

`Oc1ccc(C=Cc2cc(O)cc(O)c2)cc1` [Resveratrol]: the Z-score was 11.669.

On to `O=C(O)[C@H](O)[C@@H](O)[C@H](O[C@@H]1O[C@H](CO)[C@H](O)[C@H](O)[C@H]1O)[C@H](O)CO` [Lactobionic acid], for which the Z-score was −0.5092.

Consider `CC(=O)OCC(=O)[C@H]1CC[C@H]2[C@@H]3CC[C@H]4C[C@H](O)CC[C@]4(C)[C@H]3C(=O)C[C@]12C` [Alfadolone acetate], for which the Z-score is −0.4554.

Compound `CN1CCC(=C2c3ccccc3Sc3ccccc32)CC1` [Pimethixene maleate] came in with a Z-score of −0.4872.

`CC[N+]1(C)CCCC(OC(=O)C(O)(c2ccccc2)c2ccccc2)C1` (stereo not drawn) [Pipenzolate bromide] displayed a Z-score of −1.06.

In turn, `CCCC(C)(COC(N)=O)COC(=O)NC(C)C` (stereo not drawn) [Carisoprodol] displayed a Z-score of 0.5591.

As for `C[N+]1(C)CCC[C@H]1C(=O)[O-].Cl` [Stachydrine hydrochloride], the Z-score was determined as 0.2248.

Consider `CCCCNc1cc(C(=O)O)cc(S(N)(=O)=O)c1Oc1ccccc1` [Bumetanide], for which the Z-score is listed as −1.3983.

Consider `Cl.OC(CCN1CCCCC1)(c1ccccc1)C1CCCCC1` (stereo not drawn) [Trihexyphenidyl-D,L Hydrochloride], for which the Z-score turned out to be 1.258.

`COc1ccc(C(=O)NCc2cccnc2)cc1C(=O)NCc1cccnc1` [Picotamide monohydrate] returned a Z-score of −1.2123.

With `NCC1(CC(=O)O)CCCCC1` [Gabapentin], the Z-score is given as −0.2478.

Compound `CC1CCc2cc(F)cc3c(=O)c(C(=O)O)cn1c23` (stereo not drawn) [Flumequine] displayed a Z-score of −0.8648.

For `CC1(C)O[C@@H]2C[C@H]3[C@@H]4C[C@H](F)C5=CC(=O)CC[C@]5(C)[C@H]4[C@@H](O)C[C@]3(C)[C@]2(C(=O)CO)O1` [Flurandrenolide], the Z-score is recorded as −0.0402.

For `COc1ccc(Cl)cc1C(=O)NCCc1ccc(S(=O)(=O)NC(=O)NC2CCCCC2)cc1` [Glibenclamide], the Z-score came out at 0.3112.

`CN1[C@@H]2CCC[C@H]1CC(=O)C2.Cl` [Pseudopelletierine hydrochloride] showed a Z-score of 0.1911.

As to `CCN1C[C@]2(C)CC[C@H](O)[C@]34C1[C@@H](C[C@H]23)[C@@]1(O)C[C@H](OC)[C@H]2C[C@@H]4[C@@H]1[C@H]2O` [Karakoline], the Z-score is on record as −1.4178.

In the case of `[H]/N=C(\N/C(=N/[H])Nc1ccc(Cl)cc1)NC(C)C` [Proguanil hydrochloride], the Z-score came out at 16.0329.

The compound `CC[C@H]1OC(=O)[C@H](C)[C@@H](O[C@H]2C[C@@](C)(OC)[C@@H](O)[C@H](C)O2)[C@H](C)[C@@H](O[C@@H]2O[C@H](C)C[C@H](N(C)C)[C@H]2O)[C@](C)(O)C[C@@H](C)C(=O)[C@H](C)[C@@H](O)[C@]1(C)O` [Erythromycin] displayed a Z-score of 1.131.

Turning to `C[C@H](CS)C(=O)N1CCC[C@H]1C(=O)O` [Captopril], the Z-score is reported as −0.2654.

The compound `CN1C(=O)CCS(=O)(=O)C1c1ccc(Cl)cc1` (stereo not drawn) [Chlormezanone] had a Z-score of −0.6525.

The compound `Cc1ccc(S(=O)(=O)NC(=O)NN2CC3CCCC3C2)cc1` (stereo not drawn) [Gliclazide] gave a Z-score of 0.2404.

In turn, Dihydroergotamine tartrate registered a Z-score of −0.7032.

As for Pyrantel tartrate, the Z-score is recorded as −0.1933.

Take `C[C@H]1CC[C@]2(NC1)O[C@H]1C[C@H]3[C@@H]4CC[C@H]5C[C@@H](O)CC[C@]5(C)[C@H]4CC[C@]3(C)[C@H]1[C@@H]2C` [Tomatidine]: the Z-score is listed as −0.7378.

`CN1CCN(C(c2ccccc2)c2ccccc2)CC1` [Cyclizine hydrochloride] came in with a Z-score of −0.9231.

For `O=C1C=C2C=C[C@@H]3C[C@@]2(O1)[C@H]1CCCCN31` [Securinine], the Z-score is on record as −0.5036.

`CC1(C)S[C@@H]2[C@H](NC(=O)[C@H](N)c3ccc(O)cc3)C(=O)N2[C@H]1C(=O)O` [Amoxicillin]: the Z-score is −0.1957.

`COC1=CC(=O)O[C@@H](/C=C/c2ccccc2)C1` [Kawain] had a Z-score of −0.5048.

In the case of Eburnamonine (−), the Z-score is on record as −1.0688.

In the case of `CC(=O)[C@H]1CC[C@H]2[C@@H]3C=CC4=CC(=O)CC[C@@]4(C)[C@@H]3CC[C@]12C` [Dydrogesterone], the Z-score is on record as −0.7044.

For the compound `Cc1cc(-c2ccccc2)nnc1NCCN1CCOCC1` [Minaprine dihydrochloride], the Z-score is 0.429.

As to `CN/C(=N/CCSCc1nc[nH]c1C)NC#N` [Cimetidine], the Z-score is recorded as −0.2141.

Regarding `NC(=O)OCC(O)COc1ccc(Cl)cc1` (stereo not drawn) [Chlorphensin carbamate], the Z-score is listed as 0.4583.

For `CCN(CC)CCOC(=O)C1(c2ccc([N+](=O)[O-])cc2)CCCC1.Cl` [Nitrocaramiphen hydrochloride], the Z-score is given as −1.1255.

With `COC(=O)[C@H]1[C@H]2C[C@H]3c4[nH]c5ccccc5c4CCN3C[C@@H]2CC[C@@H]1O.Cl` [Corynanthine hydrochloride], the Z-score was −0.2498.

Compound `CN(C)CCCN1c2ccccc2Sc2ccc(C(F)(F)F)cc21` [Triflupromazine hydrochloride] had a Z-score of 0.04449.
